Target: T1, E3 ubiquitin-protein ligase XIAP [241-356] (Homo sapiens, UniProt P98170)
T1 construct: 241-356
Assay: Competitive Fluorescent-binding Assay
Conditions: pH 7; 22 °C
Method: AVPC-badan can be displaced from the binding pocket of the protein by test compounds. As the dye is displaced from the binding pocket, the emission is reduced and resembles that of the AVPC-badan dye in solution alone. The AUC for the emission spectra of AVPC-badan alone, AVPC-badan, and for the Smac mimic bound to BIR3-XIAP are used to calculate a relative Kd for the Smac mimic. The relative Kd is then converted to an absolute Kd using the Kd value for AVPC-badan, which was determined in a titration assay.

T1 sequence (P98170 241-356): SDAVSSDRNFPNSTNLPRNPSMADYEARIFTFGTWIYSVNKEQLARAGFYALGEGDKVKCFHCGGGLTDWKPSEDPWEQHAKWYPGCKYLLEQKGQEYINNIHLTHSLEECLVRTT

Question: For `CC[C@@H](C)[C@H](NC(=O)[C@@H]1CCCN1C(=O)c1coc([C@H](C)N)n1)C(=O)O` [(2S,3R)-2-{[(2S)-1-({2-[(1S)-1-aminoethyl]-1,3-oxazol-4-yl}carbonyl)pyrrolidin-2-yl]formamido}-3-methylpentanoic acid], which Kd is on record?
Answer: 300 µM
